Source: US7625841B2, “Substituted thiene-3-ylsulphonylamino(thio)carbonyltriazolin(ethi)ones” (Bayer CropScience AG, priority 2001, dated 2009)

Columns and labels:
Format in all cases: in vivo
[1] = test system: Setaria; assay: Post-emergence test/greenhouse; details: greenhouse, application rate 15 gai/ha, rated after three weeks, 0%=no effect, 100%=total destruction
Procedure: (§1) • Solvent: 5 parts by weight of acetone • Emulsifier: 1 part by weight of alkylaryl polyglycol ether
(§2) To produce a suitable preparation of active compound, 1 part by weight of active compound is mixed with the stated amount of solvent, the stated amount of emulsifier is added and the concentrate is diluted with water to the desired concentration.
(§3) Test plants of a height of 5-15 cm are sprayed with the preparation of active compound such that the particular amounts of active compound desired are applied per unit area. The concentration of the spray liquor is chosen such that the particular amounts of active compound desired are applied in 1000 l of water/ha.
(§4) After three weeks, the degree of damage to the plants is rated in % damage in comparison to the development of the untreated control.
(§5) The figures denote: • 0%=no effect (like untreated control) • 100%=total destruction

[2] = test system: Bromus; assay: Post-emergence test/greenhouse; details: greenhouse, application rate 15 gai/ha, rated after three weeks, 0%=no effect, 100%=total destruction
Procedure: as §1, §2, §3, §4, §5

[3] = test system: Digitaria; assay: Post-emergence test/greenhouse; details: greenhouse, application rate 15 gai/ha, rated after three weeks, 0%=no effect, 100%=total destruction
Procedure: as §1, §2, §3, §4, §5

[4] = test system: Alopecurus; assay: Post-emergence test/greenhouse; details: greenhouse, application rate 15 gai/ha, rated after three weeks, 0%=no effect, 100%=total destruction
Procedure: as §1, §2, §3, §4, §5

[5] = test system: Avena fatua; assay: Post-emergence test/greenhouse; details: greenhouse, application rate 15 gai/ha, rated after three weeks, 0%=no effect, 100%=total destruction
Procedure: as §1, §2, §3, §4, §5

[6] = test system: maize; assay: Post-emergence test/greenhouse; details: greenhouse, application rate 15 gai/ha, rated after three weeks, 0%=no effect, 100%=total destruction
Procedure: as §1, §2, §3, §4, §5

[7] = test system: wheat; assay: Post-emergence test/greenhouse; details: greenhouse, application rate 15 gai/ha, rated after three weeks, 0%=no effect, 100%=total destruction
Procedure: as §1, §2, §3, §4, §5

[8] = test system: crop plants such as, for example, maize, oilseed rape and wheat; assay: Post-emergence test, summary for crop plants
Procedure: as §1, §2, §3, §4, §5

[9] = test system: weeds; assay: Pre-emergence test, summary for weeds
Procedure: as §1
(§6) To produce a suitable preparation of active compound, 1 part by weight of active compound is mixed with the stated amount of solvent, the stated amount of emulsifier is added and the concetrate is diluted with water to the desired concentration.
(§7) Seeds of the test plants are sown in normal soil. After 24 hours, the soil is sprayed with the preparation of active compound such that the particular amount of active compound desired is applied per unit area. The concentration of active compound in the spray liquor is chosen such that the particular amount of active compound desired is applied in 1000 litres of water per hectare.
(§8) After three weeks, the degree of damage to the plants is rated in % damage in comparison to the development of the untreated control. The figures denote: • 0%=no effect (like untreated control) • 100%=total destruction

[10] = test system: Stellaria; assay: Pre-emergence test/greenhouse; details: greenhouse, application rate 15 gai/ha, rated after three weeks, 0%=no effect, 100%=total destruction
Procedure: as §1, §6, §7, §8

[11] = test system: Polygonum; assay: Pre-emergence test/greenhouse; details: greenhouse, application rate 15 gai/ha, rated after three weeks, 0%=no effect, 100%=total destruction
Procedure: as §1, §6, §7, §8

[12] = test system: Bromus; assay: Pre-emergence test/greenhouse; details: greenhouse, application rate 15 gai/ha, rated after three weeks, 0%=no effect, 100%=total destruction
Procedure: as §1, §6, §7, §8

[13] = test system: Alopecurus; assay: Pre-emergence test/greenhouse; details: greenhouse, application rate 15 gai/ha, rated after three weeks, 0%=no effect, 100%=total destruction
Procedure: as §1, §6, §7, §8

[14] = test system: Lolium; assay: Pre-emergence test/greenhouse; details: greenhouse, application rate 15 gai/ha, rated after three weeks, 0%=no effect, 100%=total destruction
Procedure: as §1, §6, §7, §8

[15] = test system: maize; assay: Pre-emergence test/greenhouse; details: greenhouse, application rate 15 gai/ha, rated after three weeks, 0%=no effect, 100%=total destruction
Procedure: as §1, §6, §7, §8

[16] = test system: Solanum; assay: Pre-emergence test/greenhouse; details: greenhouse, application rate 15 gai/ha, rated after three weeks, 0%=no effect, 100%=total destruction
Procedure: as §1, §6, §7, §8

[17] = test system: wheat; assay: Pre-emergence test/greenhouse; details: greenhouse, application rate 15 gai/ha, rated after three weeks, 0%=no effect, 100%=total destruction
Procedure: as §1, §6, §7, §8

[18] = test system: weeds; assay: Post-emergence test, summary for weeds
Procedure: as §1, §2, §3, §4, §5

[19] = test system: crop plants, such as, for example, maize, soyabean and wheat; assay: Pre-emergence test, summary for crop plants
Procedure: as §1, §6, §7, §8

[20] = test system: Polygonum; assay: Post-emergence test/greenhouse; details: greenhouse, application rate 15 gai/ha, rated after three weeks, 0%=no effect, 100%=total destruction
Procedure: as §1, §2, §3, §4, §5

[21] = test system: Echinochloa; assay: Post-emergence test/greenhouse; details: greenhouse, application rate 15 gai/ha, rated after three weeks, 0%=no effect, 100%=total destruction
Procedure: as §1, §2, §3, §4, §5

[22] = test system: Datura; assay: Post-emergence test/greenhouse; details: greenhouse, application rate 15 gai/ha, rated after three weeks, 0%=no effect, 100%=total destruction
Procedure: as §1, §2, §3, §4, §5

[23] = test system: Xanthium; assay: Post-emergence test/greenhouse; details: greenhouse, application rate 15 gai/ha, rated after three weeks, 0%=no effect, 100%=total destruction
Procedure: as §1, §2, §3, §4, §5

[24] = test system: Lolium; assay: Post-emergence test/greenhouse; details: greenhouse, application rate 15 gai/ha, rated after three weeks, 0%=no effect, 100%=total destruction
Procedure: as §1, §2, §3, §4, §5

[25] = test system: Xanthium; assay: Pre-emergence test/greenhouse; details: greenhouse, application rate 15 gai/ha, rated after three weeks, 0%=no effect, 100%=total destruction
Procedure: as §1, §6, §7, §8

[26] = test system: Setaria; assay: Pre-emergence test/greenhouse; details: greenhouse, application rate 15 gai/ha, rated after three weeks, 0%=no effect, 100%=total destruction
Procedure: as §1, §6, §7, §8

[27] = test system: Matricaria; assay: Pre-emergence test/greenhouse; details: greenhouse, application rate 15 gai/ha, rated after three weeks, 0%=no effect, 100%=total destruction
Procedure: as §1, §6, §7, §8

[28] = test system: soybeans; assay: Pre-emergence test/greenhouse; details: greenhouse, application rate 15 gai/ha, rated after three weeks, 0%=no effect, 100%=total destruction
Procedure: as §1, §6, §7, §8

[29] = test system: Amaranthus; assay: Pre-emergence test/greenhouse; details: greenhouse, application rate 15 gai/ha, rated after three weeks, 0%=no effect, 100%=total destruction
Procedure: as §1, §6, §7, §8

[30] = test system: Viola; assay: Post-emergence test/greenhouse; details: greenhouse, application rate 15 gai/ha, rated after three weeks, 0%=no effect, 100%=total destruction
Procedure: as §1, §2, §3, §4, §5

[31] = test system: Avena fatua; assay: Pre-emergence test/greenhouse; details: greenhouse, application rate 15 gai/ha, rated after three weeks, 0%=no effect, 100%=total destruction
Procedure: as §1, §6, §7, §8

Row | SMILES | degree of damage to the plants, Setaria [1] [%] | degree of damage to the plants, Bromus [2] [%] | degree of damage to the plants, Digitaria [3] [%] | degree of damage to the plants, Alopecurus [4] [%] | degree of damage to the plants, Avena fatua [5] [%] | compatibility with crop plants compared with the known compounds (A) and (B) [8] | activity against weeds compared with the known compounds (A) to (G) [9] | degree of damage to the plants, Stellaria [10] [%] | degree of damage to the plants, Polygonum [11] [%] | degree of damage to the plants, Alopecurus [13] [%] | degree of damage to the plants, Lolium [14] [%] | degree of damage to the plants, maize [15] [%] | degree of damage to the plants, Solanum [16] [%] | degree of damage to the plants, wheat [17] [%] | activity against weeds compared with the known compounds (A) and (B) [18] | tolerance by crop plants [19] | degree of damage to the plants, Echinochloa [21] [%] | degree of damage to the plants, Lolium [24] [%] | degree of damage to the plants, Matricaria [27] [%] | degree of damage to the plants, Amaranthus [29] [%] | other results
1 | COC(=O)c1csc(C)c1S(=O)(=O)NC(=O)n1nc(C2CC2)n(C)c1=O [Example 22] | 90 | 95 | 95 | 99 | 80 | substantially better compatibility with crop plants | considerably stronger activity against weeds | 100 | 95 | 95 | 95 | 0 | 100 | 0 | considerably stronger activity against weeds | tolerated well by crop plants |  |  |  |  | degree of damage to the plants, maize [6]: 0%; degree of damage to the plants, wheat [7]: 0%; degree of damage to the plants, Bromus [12]: 100%
2 | CCOC(=O)c1csc(C)c1S(=O)(=O)NC(=O)n1nc(OCC)n(C)c1=O [Example 55] |  | 90 |  | 90 |  | substantially better compatibility with crop plants | considerably stronger activity against weeds | 100 | 95 | 95 | 90 | 0 | 100 | 0 | considerably stronger activity against weeds | tolerated well by crop plants | 90 | 90 |  |  | degree of damage to the plants, Polygonum [20]: 90%; degree of damage to the plants, Datura [22]: 95%; degree of damage to the plants, Xanthium [23]: 95%; degree of damage to the plants, maize [6]: 0%; degree of damage to the plants, Bromus [12]: 95%; degree of damage to the plants, Xanthium [25]: 95%
3 | COCc1nn(C(=O)NS(=O)(=O)c2c(C(=O)OC)csc2C)c(=O)n1C [Example 18] | 100 | 80 | 95 | 95 | 95 | substantially better compatibility with crop plants | considerably stronger activity against weeds | 95 |  | 95 |  | 0 |  | 0 | considerably stronger activity against weeds | tolerated well by crop plants | 95 | 95 | 100 | 95 | degree of damage to the plants, maize [6]: 0%; degree of damage to the plants, Setaria [26]: 95%; degree of damage to the plants, soybeans [28]: 0%
4 | CCOC(=O)c1csc(C)c1S(=O)(=O)NC(=O)n1nc(OC)n(C2CC2)c1=O [Example 56] |  | 90 |  |  | 90 | substantially better compatibility with crop plants | considerably stronger activity against weeds | 100 |  |  | 95 | 0 | 100 | 0 | considerably stronger activity against weeds | tolerated well by crop plants | 95 | 90 | 100 | 100 | degree of damage to the plants, Datura [22]: 90%; degree of damage to the plants, Xanthium [23]: 95%; degree of damage to the plants, Viola [30]: 95%; degree of damage to the plants, wheat [7]: 0%; degree of damage to the plants, Bromus [12]: 95%; degree of damage to the plants, Xanthium [25]: 95%
5 | CCCc1nn(C(=O)NS(=O)(=O)c2c(C(=O)OC)csc2C)c(=O)n1C1CC1 [Example 48] | 80 |  | 90 |  | 90 | substantially better compatibility with crop plants | considerably stronger activity against weeds | 100 | 95 |  | 95 |  |  |  | considerably stronger activity against weeds | tolerated well by crop plants | 95 | 100 | 95 | 100 | degree of damage to the plants, Xanthium [23]: 90%; degree of damage to the plants, Viola [30]: 95%; degree of damage to the plants, Avena fatua [31]: 95%
6 | CCc1nn(C(=O)NS(=O)(=O)c2c(C(=O)OC)csc2C)c(=O)n1C1CC1 [Example 47] | 90 | 80 | 90 |  | 95 | substantially better compatibility with crop plants | considerably stronger activity against weeds | 100 | 90 |  | 80 |  |  |  | considerably stronger activity against weeds | tolerated well by crop plants | 95 | 100 | 100 | 100 | degree of damage to the plants, Xanthium [23]: 80%; degree of damage to the plants, Viola [30]: 100%; degree of damage to the plants, Setaria [26]: 95%; degree of damage to the plants, Avena fatua [31]: 95%
7 | CCSc1nn(C(=O)NS(=O)(=O)c2c(C(=O)OC)csc2C)c(=O)n1C [Example 20] |  | 80 |  | 90 |  | substantially better compatibility with crop plants | considerably stronger activity against weeds | 100 |  | 90 | 95 | 0 | 100 | 0 | considerably stronger activity against weeds | tolerated well by crop plants | 100 |  | 100 | 95 | degree of damage to the plants, Viola [30]: 100%; degree of damage to the plants, wheat [7]: 0%; degree of damage to the plants, soybeans [28]: 0%
